Reference: patent publication US20060165821A1, “Composition comprising scutellaria baicalensis and their uses thereof” (priority 2002, published 2006)

Assays:
SCC-25 cells = assay: Previously determined IC50 of celecoxib; format: cell-based; details: Homo sapiens, quantity inhibited not stated
Experimental: Benzo[a]pyrene (BaP), one of the compounds released from smoking, is a prototypical carcinogen. It is a polycyclic aromatic hydrocarbon (PAH) compound and is found in high quantity (20-40 ng) in each cigarette. BaP is metabolized and activated to become the ultimate carcinogenic metabolite [(+)-anti-7b,8a-dihydroxy-9a,10a-epoxy-7,8,9,10-tetrahydorbenzo[a]pyrene], also known as BPDE. […] We examined the counter-stimulatory effect of Scutellaria baicalensis on BaP-induced COX-2 activity. After the treating SCC-25 cells with BaP for 6 hours, the supernatants were removed and the cells were washed with PBS. […] This situation resembles the chemoprevention in the former smokers.

[1] = mice or rats; 500 mg/kg oral, 3000 mg/kg IM, 1500 mk/kg IV; cited from earlier work
[2] = following an oral dose; cited from earlier work
[3] = Paw edema induced by Freund's complete adjuvant in rats; format: in vivo, Wistar rats; details: X ± SD, n = 6, oral gavage once per day
Experimental: The anti-arthritic activity of Scutellaria baicalensis formula was confirmed in animal study. Eight week-old male Wistar rats were received intradermal injections of 0.1 ml Freund's complete adjuvant (FCA, 7.5 mg/ml) to the paw of the right hindfood. At 14 days, paw edema was induced and rats were randomized into three groups (n=6) including control group, Scutellaria baicalensis formula group (30 mg/kg of Scutellaria baicalensis, 10 mg/kg of Glucosamine and 8 mg/kg of Chondroitin) and indomethacin group (12.5 mg/kg) which serves as a positive control. The treatment groups were given Scutellaria baicalensis formula or indomethacin by oral gavage once per day for a duration of 10 days. The diameters of paw were measured at 16, 20 and 24 days.

PGE2 = PGE2 in articular fluid of rats with adjuvant arthritis (ELISA); format: in vivo; details: end of experiment, X ± SD, n = 6
Description: (§1) Osteoarthritis is characterized by articular cartilage degradation and hypertrophic joint changes. Pro-inflammatory cytokines (IL-1, IL-6, TNF-α) are considered to play important roles in the initiation and development of osteoarthritis (Inoue et al. British Journal of Pharmacology 136:287-295 (2002)). Prostaglandin (PG) E2 has catabolic effects on the articular cartilage in OA (Futani et al J Immunother 2002 1;25(0):S61-S64). Therefore, we measured IL-6 and PGE2 in rats' blood with adjuvant-induced arthritis treated with Scutellaria baicalensis formula using ELISA assay. At the end of the experiment in Example 4.1, IL-6 in serum and PGE2 in articular fluid were assessed.

IL-6 = IL-6 in serum of rats with adjuvant arthritis (ELISA); format: in vivo; details: end of experiment, X ± SD, n = 6
Description: as §1

## Cc1ccc(-c2cc(C(F)(F)F)nn2-c2ccc(S(N)(=O)=O)cc2)cc1 [celecoxib]
SCC-25 cells
  IC50: 25 µM

## N[C@H]1C(O)O[C@H](CO)[C@@H](O)[C@@H]1O.O=S(=O)(O)O (some centres unmarked) [glucosamine sulfate]
[1]
  mortality: No mortality

## Chondroitin sulfate
[2]
  tolerability / signs or symptoms of toxicity: well tolerated

## COc1ccc2c(c1)c(CC(=O)O)c(C)n2C(=O)c1ccc(Cl)cc1 [Indomethacin]
[3]; 16 d
  changes of paw edema: 0.929 ± 0.214
[3]; 20 d
  changes of paw edema: 0.771 ± 0.160
[3]; 24 d
  changes of paw edema: 0.400 ± 0.245
PGE2
  PGE2: 6.00 ± 3.1 pg/mL
IL-6
  IL-6: 6.0 ± 3.1 pg/mL
